Key:
[1] = tested on: SKBr3; assay: Nexin assay for apoptosis (Annexin-V-PE/7-AAD, flow cytometry); format: cell-based, human; details: 50 μM or 100 μM Q10, 24 hours
From the text: (§1) The 7AAD dye will enter into cells with permeabilized cell membranes; primarily those cells that are in late apoptosis. Annexin-V-PE is a dye that binds to Phosphotidyl serine, which is exposed on the outer surface of the plasma membrane in early apoptotic cells. The Nexin reagent thus can be used to differentiate between different populations of apoptotic cells in a flow cytometer.

[2] = tested on: SKMEL-28 cells; assay: 2-D gel electrophoresis proteomic analysis; format: cell-based
Description: Protein was isolated from the treated and control flask after 4, 8, 12, and 24 hours. For isolation of proteins, cells were washed three times with 5 mL of ice cold PBS at a pH of 7.4. The cells were then scraped in 3 mL of PBS, pelleted by centrifuge, and re-suspended in a lysis buffer at pH 7.4 (80 mM TRIS-HCl, 1% SDS, with protease and phosphotase inhibitors). Protein concentrations were quantified using the BCA method.
The gels were run in duplicate.
The first experimental set processed and evaluated by Western blot and 2-D gel electrophoresis was the skin cancer cell line SKMEL-28.
A comparative analysis of 943 spots across all twenty-four gels was performed, comparing the control sample against all of the treated samples. The analysis included the identification of spot changes over the time course due to increase, decrease, or post-translational modification.
The analysis found thirty-two statistically significant differential spot changes. […] The characterized peptides were searched against protein databases with Mascot and MSRAT software analysis to identify the protein (Table 2).

[3] = tested on: ATP Citrate Lyase (ACL); assay: Western blot, ATP Citrate Lyase levels; format: cell-based, human; details: for ATP Citrate Lysase Normalized Intensity as % of control: glucose 5g, 48 h
Description: The whole cell pellets were resuspended one at a time in 1 mL of C7 buffer and transferred to labeled 15 mL tubes. The samples were then sonicated in the cold room on ice using 6 sonic pulses with the setting at #14. The samples were spun for a short time to 2500 g after sonication and the samples transferred to 2 ml tubes. The pH was verified of each sample (pH should be 9.0) using the foam remaining in the […] sample tubes.
After transfer each of the blots was placed in between 2 Whatman Filter papers and dried for 15-20 minutes. After drying the blots were labeled with the date, the type of samples and either blot 1 or blot 2 using a HB pencil. The molecular weight markers were outlined with the pencil and with single lines for the blue and a doublet for the colored markers. The blots were activated with methanol for 5 seconds, washed with water for 5 minutes, and TBST for 15 minutes. The blots were blocked for 1 hour with 5% blocking reagent in TBS-T at room temperature and then washed 3 times with TBS-T (1X−15′; 2X5′ each). Blot 1 was probed with the primary antibody for IDH1 (Cell Signaling #3997) in TBST with 5% BSA (at 1:1000 dilutions) and blot 2 with the rabbit polyclonal antibody for ATP Citrate Lyase in 5% BSA (Cell Signaling #4332) at 1:1000 dilution by incubation overnight at 4 deg C. with shaking. After the overnight incubation with primary antibodies, the blots were washed 3 times with TBS-T (1X−15′; 2X5′ each) and probed with the secondary antibody (antirabbit; 1:10,000 dilution) for 1 h on the orbital tilting shaker at room temperature. After 1 h of incubation with secondary antibodies, the blots were washed 3 times with TBS-T (1X−15′; 2X5′ each) and then incubated with ECF reagent for 5 mins and then each blot scanned with 5100 Fuji Laser scanner at 25 uM resolution, 16 bit, green laser, at 400V and at 500 V.
The samples were processed and run on a 4-12% Bis-Tris Novex NuPAGE gel as described above. The gels were run, transferred and stained essentially as described above.
The Isocitrate dehydrogenase blot was stripped by incubating for 30 minutes with methanol, followed by two 10 minute washes with TBS-T, then 30 minutes of incubation with stripping buffer at 50 deg C., and followed by two washes with 100 ml or more of TBS-T for 30′ each. The blot was scanned in laser scanner to check for complete stripping. The blot was activated with methanol for 5 seconds, washed with water for 5 minutes, and TBST for 15 minutes. The blot was blocked for 1 hour with 5% blocking reagent in TBS-T at room temperature and then washed 3 times with TBS-T (1X−15′; 2X5′ each). This was then probed with the rabbit polyclonal antibody for ATP Citrate Lyase in 5% BSA (Cell Signaling #4332) at 1:1000 dilution overnight at 4 deg C. with shaking. After the overnight incubation with primary antibody for ATP Citrate Lyase, the membrane was washed 3 times with TBS-T (1X−15′; 2X5′ each) and probed with the secondary antibody (antirabbit; 1:10,000 dilution) for 1 h on the orbital tilting shaker at room temperature. After 1 h of incubation with secondary antibodies, the blot was washed 3 times with TBS-T (1X−15′; 2X5′ each) and then incubated with ECF reagent for 5 minutes and then each blot scanned with 5100 Fuji Laser scanner at 25 uM resolution, 16 bit, green laser, at 400V and at 500 V.
In this experiment (western blot experiment 3), and in all of the experiments described below in this Example (i.e., western blot experiments 4 through 9), the cells were additionally treated with either 5 mM glucose (“5G”) or 22 mM glucose (“22G”). The samples derived from the cells were processed and run on a 4-12% Bis-Tris Novex NuPAGE gel as described above. The gels were run, transferred and stained essentially as described above.
The levels of IDH1, ATP citrate lyase and actin levels were determined by probing the blots with primary antibodies for IDH1, ATP citrate lyase and actin, essentially as described above.

[4] = tested on: HepG2 (liver cancer) cells; assay: Real-time PCR Angiogenesis Array; format: cell-based; details: 100 μM Q10, genes: ANGPTL3, ANGPTL4, CXCL1, CXCL3, CXCL5, ENG, ID3, MMP2, TIMP3
Description: The treatment was initiated on 1×10^5 cells per well, following the procedure utilized in the PaCa2 cells (above Examples 9-11). However, the total amount of RNA that was extracted from these samples was lower than expected. Reverse transcription is normally done using 1 μg of total RNA (determined by measurement at 260 nm). The maximum volume that can be used per reverse transcription is 8 μl.

[5] = tested on: PC-3; assay: Nexin assay for apoptosis (Annexin-V-PE/7-AAD, flow cytometry); format: cell-based; details: 50 μM and 100 μM Q10, 24 hours, less than in PaCa2
From the text: as §1

[6] = tested on: MCF-7; assay: as above; format: cell-based; details: 50 μM and 100 μM Q10, 24 hours
From the text: as §1

[7] = tested on: SK-MEL28; assay: as above; format: cell-based; details: 50 μM and 100 μM Q10, 24 hours
From the text: as §1

## COC1=C(OC)C(=O)C(C/C=C(\C)CC/C=C(\C)CC/C=C(\C)CC/C=C(\C)CC/C=C(\C)CC/C=C(\C)CC/C=C(\C)CC/C=C(\C)CC/C=C(\C)CCC=C(C)C)=C(C)C1=O [Q10, Coenzyme Q10]
[1]
  early and late apoptosis: did not show any significant increases of early and late apoptosis
[2]
  Transaldolase 1 level: decrease of Transaldolase 1
[3]; HepG2, 50 uM
  ATP Citrate Lysase Normalized Intensity as % of control: 85 % of control
[3]; HepG2, 100 uM
  ATP Citrate Lysase Normalized Intensity as % of control: 79 % of control
[3]; PACA2, 50 uM
  ATP Citrate Lysase Normalized Intensity as % of control: 68 % of control
[3]; PACA2, 100 uM
  ATP Citrate Lysase Normalized Intensity as % of control: 42 % of control
[3]; cancer cells
  expression of ACL: dose-dependent decrease in the expression of ACL enzymes
[3]; normal cells
  expression of ACL: trend towards increased expression of ACL
[4]
  genes regulated in the Angiogenesis Arrays: List of genes regulated in the Angiogenesis Arrays
[5]
  early and late apoptotic population: increase in both early and late apoptotic population
[6]
  apoptotic population: increase only in early apoptotic population
[7]
  apoptotic population: increase only in early apoptotic population
